Reference: patent publication US11008340B2, “Modulators of ROR-gamma” (Vitae Pharmaceuticals, LLC, priority 2015, dated 2021)
Where two headings read alike, the source gives them in different places.

Tests used:
[1] = biological target: T1, recombinant RORγ Ligand Binding Domain (LBD) protein (Homo sapiens, UniProt P51449); experiment: Radio-Ligand RORγ Binding Assay (Assay 1); settings: radio-ligand competition, RORγ LBD, read-out: Avg ROR Bind Ki
T1 construct: 6×His; GST
T1 sequence (P51449 269-508 limits assumed): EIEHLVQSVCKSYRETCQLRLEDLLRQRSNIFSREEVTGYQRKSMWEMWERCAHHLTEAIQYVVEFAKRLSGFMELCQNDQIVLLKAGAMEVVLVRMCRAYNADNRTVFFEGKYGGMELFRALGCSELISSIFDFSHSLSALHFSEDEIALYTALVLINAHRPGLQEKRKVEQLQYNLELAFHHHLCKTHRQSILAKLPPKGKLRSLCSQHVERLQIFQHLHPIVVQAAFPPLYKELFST
Procedure, shortened: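 Cell-free SPA competition between compound and 25-hydroxy[26,27-^3H]-cholesterol for 6×His-GST-tagged RORγ LBD in 50 mM HEPES pH 7.4 with NaCl, MgCl2, glycerol, CHAPS, octylglucoside and DTT. Mix was shaken 20 min, held 10 min at rt, then read after poly-Lys YSi beads. IC50 came from a four-parameter fit, and Ki from radioligand KD.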

[2] = biological target: T2, full-length RORγt in Jurkat cells (Homo sapiens, UniProt P51449); experiment: RORγt 5×RORE Assay in Jurkat Cells (Assay 2); type: cell-based; settings: 5×RORE luciferase reporter
T2 construct: transcriptional activity of the full-length RORγt in Jurkat cells; host or cells: Jurkat cells (ATCC TIB-152)
T2 sequence (P51449 1-497 isoform P51449-2): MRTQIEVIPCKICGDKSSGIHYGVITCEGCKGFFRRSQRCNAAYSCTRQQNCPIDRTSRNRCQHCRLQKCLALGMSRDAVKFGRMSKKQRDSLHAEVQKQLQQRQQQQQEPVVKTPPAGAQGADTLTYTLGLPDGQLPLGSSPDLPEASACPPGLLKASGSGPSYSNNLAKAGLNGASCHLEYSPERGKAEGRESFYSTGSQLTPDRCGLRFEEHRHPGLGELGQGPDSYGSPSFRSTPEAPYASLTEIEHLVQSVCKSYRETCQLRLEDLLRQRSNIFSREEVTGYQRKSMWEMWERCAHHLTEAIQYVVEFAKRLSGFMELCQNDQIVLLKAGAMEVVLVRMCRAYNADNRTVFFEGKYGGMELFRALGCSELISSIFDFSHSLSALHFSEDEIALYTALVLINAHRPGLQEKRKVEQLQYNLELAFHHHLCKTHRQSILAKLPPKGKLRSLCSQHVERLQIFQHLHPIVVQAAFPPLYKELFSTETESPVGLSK
Procedure, shortened: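 Jurkat cells transiently co-transfected with full-length RORγt expression plasmid and secreted NanoLuc reporter driven by 5×RORE; plated in phenol-red-free RPMI with 10% delipidated FBS. Compounds added at 0.1% DMSO final, 16-18 hrs at 37° C; supernatant luciferase read with NanoGlo as measure of inverse agonism.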

[3] = 25-hydroxy [26,27-3H]-cholesterol
[4] = Table 20, read-out: Avg ROR γt/5x IC5
[5] = head without unit (Tables 15, 17)
[6] = head without unit (Tables 15, 17), read-out: Avg ROR γt/5x IC50

Compound | Ki [1, 3] | IC50 ([2]; read-out: Avg ROR γt/5x IC50) | IC50 [2, 4] | Ki [1, 5] | IC50 [2, 6]
CCS(=O)(=O)c1ccc(CNC(=O)c2ccc3c(c2)CCN(Cc2ccc(C#N)cc2)[C@H]3C(C)C)cc1 (single isomer, unassigned) [Hy2A-15.1] | < 100 nM | < 100 nM |  |  | 
CCS(=O)(=O)c1ccc([C@H](CO)NC(=O)c2ccc3c(OCc4ccc(C(F)(F)F)cc4)nccc3c2)cc1 [Hy1A-7, (R)-N-(1-(4-(ethylsulfonyl)phenyl)-2-hydroxyethyl)-1-((4-(trifluoromethyl)benzyl)oxy)isoquinoline-6-carboxamide] | < 100 nM | 100 to 1000 nM |  |  | 
CCS(=O)(=O)c1ccc([C@H](CO)NC(=O)c2ccc3c(OC[C@H]4CC[C@H](C(F)(F)F)CC4)nccc3c2)cc1 [Hy1A-8, N-((R)-1-(4-(ethylsulfonyl)phenyl)-2-hydroxyethyl)-1-(((1r,4R)-4-(trifluoromethyl)cyclohexyl)methoxy)isoquinoline-6-carboxamide] | < 100 nM | 100 to 1000 nM |  |  | 
CCS(=O)(=O)c1ccc(CNC(=O)c2ccc3c(c2)CN(c2ncc(C#N)cn2)C[C@H]3C(C)C)cc1 (single isomer, unassigned) [Hy7-2.1] | < 100 nM |  | 100 to 1000 nM |  | 
CC[C@H]1CN(c2ccc(C(F)(F)F)cn2)Cc2cc(C(=O)NCc3ccc(S(=O)(=O)CC)cc3)ccc21 (single isomer, unassigned) [Hy7-8.2] | < 100 nM |  | 100 to 1000 nM |  | 
CCS(=O)(=O)c1ccc([C@H](CO)NC(=O)c2sc3nc(C)nc(OCc4ccc(C(F)(F)F)cc4)c3c2C)cc1 [Hy6-3, (R)-N-(1-(4-(ethylsulfonyl)phenyl)-2-hydroxyethyl)-2,5-dimethyl-4-((4-(trifluoromethyl)benzyl)oxy)thieno[2,3-d]pyrimidine-6-carboxamide] | < 100 nM | < 100 nM |  |  | 
CCS(=O)(=O)c1ccc(CNC(=O)c2cnc3c(c2)CCN(C[C@H]2CC[C@H](C(F)(F)F)CC2)[C@H]3C(C)C)cc1 (single isomer, unassigned) [Hy2B-9.1] |  |  |  | < 100 nM | 100 to 1000 nM
CC[C@H]1CN(c2ccc(C(F)(F)F)cc2)C(=O)c2cc(C(=O)NCc3ccc(S(=O)(=O)CC)cc3)ccc21 (single isomer, unassigned) [Hy7-12.2] | < 100 nM |  | 100 to 1000 nM |  | 
CCS(=O)(=O)c1ccc(CNC(=O)c2ccc3c(c2)C(C)(C)CN(Cc2ccc(C#N)cc2)C3C(C)C)cc1 (single isomer, unassigned) [Hy2A-23.2] | < 100 nM | 100 to 1000 nM |  |  | 
CCS(=O)(=O)c1ccc(CNC(=O)c2cc3ccnc(OCc4ccc(C(F)(F)F)cc4)c3n2C)cc1 [Hy4-3, N-(4-(ethylsulfonyl)benzyl)-1-methyl-7-((4-(trifluoromethyl)benzyl)oxy)-1H-pyrrolo[2,3-c]pyridine-2-carboxamide] |  |  |  | < 100 nM | 100 to 1000 nM
CCc1cc2cc(C(=O)NCc3ccc(S(=O)(=O)CC)cc3)ccc2c(OC[C@H]2CC[C@H](C(F)(F)F)CC2)n1 [Hy1A-20, 3-ethyl-N-(4-(ethylsulfonyl)benzyl)-1-(((1r,4r)-4-(trifluoromethyl)cyclohexyl)methoxy)isoquinoline-6-carboxamide] | < 100 nM | < 100 nM |  |  | 
CCS(=O)(=O)c1ccc(CNC(=O)c2ccc3c(c2)CCN(Cc2ccc(OC(F)F)nc2)[C@H]3C(C)C)cc1 (single isomer, unassigned) [Hy2A-25.1] | < 100 nM | < 100 nM |  |  | 
CCS(=O)(=O)c1ccc(CNC(=O)c2ccc3c(OCc4ccc(C(F)(F)F)cc4)nccc3c2)cc1 [Hy1A-4, N-(4-(ethylsulfonyl)benzyl)-1-((4-(trifluoromethyl)benzyl)oxy)isoquinoline-6-carboxamide] | < 100 nM | 100 to 1000 nM |  |  | 
CCS(=O)(=O)c1ccc(CNC(=O)c2ccc3c(OC[C@H]4CC[C@H](C(F)(F)F)CC4)nc(Cl)cc3c2)cc1 [Hy1A-9, 3-chloro-N-(4-(ethylsulfonyl)benzyl)-1-(((1r,4r)-4-(trifluoromethyl)cyclohexyl)methoxy)isoquinoline-6-carboxamide] | < 100 nM | < 100 nM |  |  | 
CC[C@@H]1CN(c2ncc(C(F)(F)F)cn2)Cc2cc(C(=O)N[C@H](CO)c3ccc(S(=O)(=O)CC)cn3)ccc21 (single isomer, unassigned) [Hy7-18.2] | < 100 nM |  | > 1000 nM |  | 

Now from value to compound:

Ki [1, 3] | IC50 ([2]; read-out: Avg ROR γt/5x IC50) | IC50 [2, 4] | Ki [1, 5] | IC50 [2, 6] | Compound
< 100 nM | > 1000 nM |  |  |  | CCS(=O)(=O)c1ccc(CNC(=O)c2ccc3c(OC4CCC(C(F)(F)F)CC4)nccc3c2)cc1 (single isomer, unassigned) [Hy1A-3.1, N-(4-(ethylsulfonyl)benzyl)-1-(((1s,4s)-4-(trifluoromethyl)cyclohexyl)oxy)isoquinoline-6-carboxamide]
< 100 nM |  | 100 to 1000 nM |  |  | CC[C@H]1CN(c2ccc(C(F)(F)F)cc2)Cc2cc(C(=O)NCc3ccc(S(=O)(=O)CC)cc3)ccc21 (single isomer, unassigned) [Hy7-7.2]
< 100 nM |  | > 1000 nM |  |  | CC[C@@H]1CN(C2CCC(F)(F)CC2)Cc2cc(C(=O)N[C@@H](CO)c3ccc(S(=O)(=O)CC)cc3)ccc21 (single isomer, unassigned) [Hy7-32.1]
< 100 nM |  | 100 to 1000 nM |  |  | CCS(=O)(=O)c1ccc(CNC(=O)c2ccc3c(c2)CN(c2ncc(C(F)(F)F)cn2)C[C@H]3C(C)C)cc1 (single isomer, unassigned) [Hy7-15.1]
< 100 nM |  | < 100 nM |  |  | CCOC(=O)c1cnc(N2Cc3cc(C(=O)NCc4ccc(S(=O)(=O)CC)cc4)ccc3[C@H](C(C)C)C2)nc1 (single isomer, unassigned) [Hy7-16.1]
< 100 nM | < 100 nM |  |  |  | CCS(=O)(=O)c1ccc([C@H](CO)NC(=O)c2ccc3c(OC[C@H]4CC[C@H](C(F)(F)F)CC4)nc(OC)cc3c2)cc1 [Hy1A-23, N-((R)-1-(4-(ethylsulfonyl)phenyl)-2-hydroxyethyl)-3-methoxy-1-(((1r,4R)-4-(trifluoromethyl)cyclohexyl)methoxy)isoquinoline-6-carboxamide]
< 100 nM | > 1000 nM |  |  |  | CCS(=O)(=O)c1ccc([C@H](CO)NC(=O)c2ccc3c(OC4CCN(CC(F)(F)F)CC4)nc(C)cc3c2)cc1 [Hy1A-17, (R)-N-(1-(4-(ethylsulfonyl)phenyl)-2-hydroxyethyl)-3-methyl-1-((1-(2,2,2-trifluoroethyl)piperidin-4-yl)oxy)isoquinoline-6-carboxamide]
< 100 nM |  | < 100 nM |  |  | CC[C@@H]1CN(c2ncc(C(F)(F)F)cc2C)Cc2cc(C(=O)NCc3ccc(S(=O)(=O)CC)cc3)ccc21 (single isomer, unassigned) [Hy7-13.1]
< 100 nM | < 100 nM |  |  |  | CCS(=O)(=O)c1ccc(CNC(=O)c2ccc3c(c2)CCN(Cc2ccc(C#N)cc2)C3C(C)C)cc1 (racemic) [Hy2A-14, 2-(4-cyanobenzyl)-N-(4-(ethylsulfonyl)benzyl)-1-isopropyl-1,2,3,4-tetrahydroisoquinoline-6-carboxamide]
< 100 nM | < 100 nM |  |  |  | CCS(=O)(=O)c1ccc(CNC(=O)c2ccc3c(c2)CCN(Cc2ccc(Cl)cc2)C3C(C)C)cc1 (racemic) [Hy2A-19, 2-(4-chlorobenzyl)-N-(4-(ethylsulfonyl)benzyl)-1-isopropyl-1,2,3,4-tetrahydroisoquinoline-6-carboxamide]
< 100 nM |  | 100 to 1000 nM |  |  | CCOC(=O)c1cnc(N2Cc3cc(C(=O)NCc4ccc(S(=O)(=O)CC)cc4)ccc3[C@@H](C(C)C)C2)nc1C(F)(F)F (single isomer, unassigned) [Hy7-26.2]
< 100 nM |  | 100 to 1000 nM |  |  | CCS(=O)(=O)c1ccc(CNC(=O)c2ccc3c(c2)CN(Cc2ccc(Cl)cc2)C[C@@H]3C(C)C)cc1 (single isomer, unassigned) [Hy7-29.2]
< 100 nM |  | < 100 nM |  |  | CC[C@@H]1CN(c2ccc(C(F)(F)F)cn2)Cc2cc(C(=O)NCc3ccc(S(=O)(=O)CC)cc3)ccc21 (single isomer, unassigned) [Hy7-8.1]
< 100 nM |  | 100 to 1000 nM |  |  | CC[C@@H]1CN(c2ncc(C3CC3)cn2)Cc2cc(C(=O)N[C@@H](CO)c3ccc(S(=O)(=O)CC)cc3)ccc21 (single isomer, unassigned) [Hy7-11.1]
